In PMC3876937 (Protein expression and purification, 2013) one finds Kd data, which are given here for one molecule.

The structures appear in SMILES notation.

The assay has as its target T1, YGR257Cp (Mtm1p) (Saccharomyces cerevisiae, UniProt P53320).
T1 sequence (P53320 1-366): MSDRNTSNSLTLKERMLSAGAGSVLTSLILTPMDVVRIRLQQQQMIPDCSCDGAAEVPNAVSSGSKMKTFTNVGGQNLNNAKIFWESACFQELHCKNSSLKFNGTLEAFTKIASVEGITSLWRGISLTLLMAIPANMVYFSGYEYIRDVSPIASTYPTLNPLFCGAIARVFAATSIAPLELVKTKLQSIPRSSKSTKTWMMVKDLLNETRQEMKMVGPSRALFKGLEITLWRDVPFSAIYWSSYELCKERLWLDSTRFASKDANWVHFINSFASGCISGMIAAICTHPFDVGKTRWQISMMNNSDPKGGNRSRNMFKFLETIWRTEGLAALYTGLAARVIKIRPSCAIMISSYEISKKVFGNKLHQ
The experiment in a line: intrinsic tryptophan fluorescence quenching titration. The format is binding.

Take `Cc1ncc(COP(=O)(O)O)c(C=O)c1O` [pyridoxal 5′-phosphate]: binding was characterised by a dissociation constant (Kd) of 700 ± 20 nM.
